Test systems include SK-MEL-5 melanoma; K-562 leukemia; HCT-15 colon; OVCAR-8 ovarian; MALME-3M melanoma; TK-10 renal; U251 CNS; IGROV1 ovarian; SR leukemia; SF-295 CNS.
Experiment in all cases: NCI-60 cell line screen, 48 h

Each structure is given as a SMILES string.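 Growth conditions: 96-well plates. Treatment: test compound, 48 hours, 5 concentrations. Analysis: linear interpolation between bracketing concentrations; unreached endpoints set to highest concentration. GI50 marks 50% less growth. TGI: concentration producing complete growth inhibition.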

As to `CC1=NOC(=O)/C1=C/c1ccccc1O`, the TGI with SK-MEL-5 melanoma, with K-562 leukemia, in the test with HCT-15 colon, in the test with OVCAR-8 ovarian, in the test on MALME-3M melanoma and in the test with TK-10 renal was greater than 100 µM throughout. For the same compound, the TGI in the test with U251 CNS, in the test with IGROV1 ovarian, in the test on SR leukemia and with SF-295 CNS was greater than 100 µM each time.

Regarding `c1cc(-c2cn3ccsc3n2)ccn1`, the TGI is greater than 100 µM in the test on SK-MEL-5 melanoma; greater than 70.3 µM in the test with K-562 leukemia; greater than 62 µM in the test on HCT-15 colon; greater than 63.8 µM in the test with OVCAR-8 ovarian; greater than 100 µM with MALME-3M melanoma; greater than 100 µM in the test with TK-10 renal. In addition, the TGI in the test with U251 CNS, with IGROV1 ovarian, in the test with SR leukemia and in the test with SF-295 CNS was greater than 100 µM in each case.

For the compound `O=C(Cn1ccc(=O)[nH]c1=O)Nc1ccc(C(=O)O)c(O)c1`, the TGI in the test on SK-MEL-5 melanoma, with K-562 leukemia, in the test on HCT-15 colon, in the test with OVCAR-8 ovarian, in the test with MALME-3M melanoma and in the test on TK-10 renal was greater than 100 µM throughout. Moreover, the TGI in the test with U251 CNS, with IGROV1 ovarian, with SR leukemia and in the test on SF-295 CNS was greater than 100 µM each time.

For the compound `O=CNc1c(Cl)cc2c(c1Cl)Cc1cc([N+](=O)[O-])ccc1-2`, the GI50 with SK-MEL-5 melanoma is 1.11 µM; in the test with K-562 leukemia, 1.38 µM; with HCT-15 colon, 3.27 µM; with OVCAR-8 ovarian, 11.6 µM; with MALME-3M melanoma, 3.85 µM; in the test on TK-10 renal, 5.63 µM. For the same compound, the GI50 in the test on U251 CNS is 5.87 µM; in the test on IGROV1 ovarian, 0.923 µM; in the test on SR leukemia, 2.61 µM; in the test with SF-295 CNS, 3.05 µM. Further, the TGI in the test with SK-MEL-5 melanoma was greater than 100 µM; with K-562 leukemia, greater than 100 µM; in the test with HCT-15 colon, greater than 100 µM; in the test with OVCAR-8 ovarian, greater than 100 µM; in the test with MALME-3M melanoma it was greater than 100 µM; in the test on TK-10 renal it was greater than 59.5 µM. The TGI is greater than 76.3 µM with U251 CNS, 38.7 µM with IGROV1 ovarian, greater than 63.1 µM in the test on SR leukemia and 14.3 µM with SF-295 CNS.

Regarding `O=C1OC(=O)C(c2c[nH]c3ccccc23)=C1c1c[nH]c2ccccc12`, the GI50 in the test on SK-MEL-5 melanoma, in the test on K-562 leukemia, in the test with HCT-15 colon, with OVCAR-8 ovarian, with MALME-3M melanoma and in the test on TK-10 renal was greater than 25 µM throughout. For the same compound, the GI50 in the test with U251 CNS, with IGROV1 ovarian, in the test with SR leukemia and in the test with SF-295 CNS was greater than 25 µM in each case. Also, the TGI in the test on SK-MEL-5 melanoma, in the test on K-562 leukemia, with HCT-15 colon, with OVCAR-8 ovarian, in the test on MALME-3M melanoma and in the test with TK-10 renal was greater than 25 µM each time. For the same compound, the TGI in the test on U251 CNS, in the test on IGROV1 ovarian, in the test with SR leukemia and in the test on SF-295 CNS was greater than 25 µM each time.

For `COCCN1C2=CCCCC2=Nc2c1nc(N)[nH]c2=O`, the TGI in the test with SK-MEL-5 melanoma, with K-562 leukemia, in the test with HCT-15 colon, in the test with OVCAR-8 ovarian, with MALME-3M melanoma and in the test with TK-10 renal was greater than 100 µM each time. Also, the TGI in the test on U251 CNS, in the test on IGROV1 ovarian, with SR leukemia and in the test on SF-295 CNS was greater than 100 µM in each case.

Consider `CN(C(=O)C12C3C4C5C3C1(C(=O)O)C5C42)C(C)(C)C` (centres undefined), for which the TGI in the test on SK-MEL-5 melanoma, with K-562 leukemia, in the test on HCT-15 colon, in the test with OVCAR-8 ovarian, in the test on MALME-3M melanoma and with TK-10 renal was greater than 100 µM each time. The TGI in the test on U251 CNS, with IGROV1 ovarian, with SR leukemia and in the test on SF-295 CNS was greater than 100 µM each time.

Regarding `CCN(CC)c1ccc(C(=C2C=CC(=[N+](CC)Cc3cccc(S(=O)(=O)O)c3)C=C2)c2ccc(N(CC)Cc3cccc(S(=O)(=O)O)c3)cc2)cc1`, the GI50 was 10.1 µM with SK-MEL-5 melanoma; 3.85 µM with K-562 leukemia; 28.5 µM in the test with HCT-15 colon; 4.8 µM with OVCAR-8 ovarian; 5.52 µM in the test with MALME-3M melanoma; 18.8 µM in the test on TK-10 renal. Also, the GI50 with U251 CNS is 3.58 µM; in the test on IGROV1 ovarian it was 13.3 µM; in the test with SF-295 CNS, 2.81 µM. Further, the TGI is 24.1 µM with SK-MEL-5 melanoma; 97.5 µM in the test on K-562 leukemia; greater than 100 µM with HCT-15 colon; greater than 100 µM in the test on OVCAR-8 ovarian; 53.1 µM in the test with MALME-3M melanoma; greater than 100 µM in the test on TK-10 renal. Also, the TGI in the test on U251 CNS was greater than 100 µM; with IGROV1 ovarian, greater than 100 µM; with SR leukemia, 0.643 µM; in the test with SF-295 CNS, greater than 47 µM.

Take `COC(=O)CCC1CCc2c(OC)ccc(O)c2C1=O` (centres undefined): the TGI in the test with SK-MEL-5 melanoma, in the test with K-562 leukemia, in the test on HCT-15 colon, with OVCAR-8 ovarian, in the test with MALME-3M melanoma and in the test on TK-10 renal was greater than 100 µM in each case. Besides, the TGI in the test with U251 CNS, in the test with IGROV1 ovarian, in the test on SR leukemia and with SF-295 CNS was greater than 100 µM in each case.

For the compound `Nc1c(C(=O)Nc2cccc([N+](=O)[O-])c2)sc2nc3c(cc12)C(O)CCC3` (centres undefined), the GI50 was 3.59 µM with SK-MEL-5 melanoma; 0.852 µM with K-562 leukemia; 2.82 µM in the test on HCT-15 colon; 10.8 µM with OVCAR-8 ovarian; 26.9 µM with MALME-3M melanoma; 15.9 µM with TK-10 renal. Further, the GI50 with U251 CNS was 6.3 µM; in the test with IGROV1 ovarian, 26 µM; with SR leukemia, 1.96 µM; with SF-295 CNS, 4.35 µM. Further, the TGI with SK-MEL-5 melanoma, in the test on K-562 leukemia, in the test with HCT-15 colon, in the test on OVCAR-8 ovarian, with MALME-3M melanoma and in the test on TK-10 renal was greater than 100 µM throughout. The TGI in the test with U251 CNS is greater than 72.4 µM; in the test on IGROV1 ovarian, greater than 100 µM; in the test with SR leukemia it was greater than 100 µM; with SF-295 CNS, greater than 54 µM.

For the origin of these results see PubChem BioAssay (NCI).
